Data as given in US8022103B2, “Ester prodrugs of prostratin and related phorbol compounds” (Salvia Sciences, Inc., priority 2005, dated 2011).
Values after ≈ are worked out from the molar mass of the structure shown. Read-outs that look alike come from different tables or passages of the source.

Experiments:
Assay type in all cases: cell-based
[1] = system: HIV-1 isolates Ba-L and IIIB and the SIV isolate mac251; assay: PBMC-based assay, summary over all three isolates; details: read-out: IC50 values against all three isolates
Procedure: Compounds SA-101A and SA-101B were tested for antiviral activity against HIV-1 in peripheral blood mononuclear cells (PBMC) acutely infected with the HIV-1 isolates. PBMCs were derived from normal HIV-1 negative donors, and cultured under conditions which promote cell survival and HIV replication. Fresh human blood was obtained commercially from Biological Specialty Corporation (Colmar, Pa.). The low passage clinical isolates HIV-1Ba-L, HIVIIIB, and SIVmac251 were from the NIAID AIDS Research and Reference Reagent Program. Immediately before use, pre-titered aliquot of the viruses were removed from storage in a freezer (−80° C.) and thawed rapidly to room temperature in a biological safety cabinet. Phytohemagglutinin (PHA-P) was obtained from Sigma (St. Louis, Mo.) and recombinant IL-2 was obtained from R&D Systems Inc. (Minneapolis, Minn.). […]
PMBC assay. […] Pooling (mixing) of mononuclear cells from more than one donor is used to minimize the variability observed between individual donors, which results from quantitative and qualitative differences in HIV infection and overall response to the PHA and IL-2 of primary lymphocyte populations. […]

[2] = system: CEM-SS cells; assay: MTS cell viability in CEM-SS cells (cytotoxicity); details: for TC50: MTS; for Cytotoxicity: at the concentrations evaluated
Procedure: (§1) Cell Preparation. CEM-SS cells were passaged in T-75 flasks prior to use in the antiviral assay. On the day preceding the assay, the cells were split 1:2 to assure they were in an exponential growth phase at the time of infection. Total cell and viability quantification was performed using a hemacytometer and trypan blue exclusion. Cell viability was greater than 95% for the cells to be utilized in the assay. The cells were resuspended at 5×10^4 cells/ml in tissue culture medium and added to the drug-containing microliter plates in a volume of 50 μl.
MTS Staining for Cell Viability. At assay termination, the assay plates were stained with the soluble tetrazolium-based dye MTS (Cell Titer Reagent Promega) to determine cell viability and quantify compound toxicity. At termination of the assay, 20 μL of MTS reagent was added per well. The microtiter plates were then incubated 4 6 hrs at 37° C. Adhesive plate sealers were used in place of the lids, the sealed plate was inverted several times to mix the soluble formazan product and the plate was read spectrophotometrically at 490/650 ηm with a Molecular Devices Vmax plate reader.
Data Analysis. Using an in-house computer program, IC50 (50%, inhibition of virus replication), IC95 (95%, inhibition of virus replication), TC50 (50% reduction in cell viability), TC95 (95% reduction in cell viability), and a therapeutic index (TI=TC50/IC50) were determined.

[3] = system: HIV-1IIIB; assay: HIV-1 antiviral cytoprotection assay in CEM-SS cells
Procedure: Antiviral efficacy of SA-101A and SA-101B compounds were evaluated in an HIV 1 antiviral cytoprotection assay using CEM-SS cells and the laboratory adapted HIV 1IIIB virus strain.
Compound preparation. Compounds SA-101A and SA-101B were prepared in powder form and solubilized in DMSO and stored at −20° C. AZT (Sigma), solubilized in sterile H2O, was used as a positive antiviral control and was stored at 4° C. The compounds were evaluated at a high test concentration of 500 μg/mL. AZT was run in parallel at a concentration of 500 nM.
as §1, with “The cells were resuspended at 5×10^4 cells/ml in tissue culture medium and added to the drug-containing microliter plates in a volume of 50 μl.” left out
Virus Preparation. […] The virus was resuspended and diluted into tissue culture medium such that the amount of virus added to each well in a volume of 50 μl was the amount determined to give approximately 90% cell killing at 6 days post-infection.
MTS Staining for Cell Viability. At assay termination, the assay plates were stained with the soluble tetrazolium-based dye MTS (Cell Titer Reagent Promega) to determine cell viability and quantify compound toxicity. […]

What does the source list for CC(=O)O[C@@]12C[C@@H](C)[C@@]3(O)[C@@H](C=C(CO)C[C@]4(O)C(=O)C(C)=C[C@@H]34)[C@@H]1C2(C)C [SA-101A, 12-deoxyphorbol 13-acetate]?
IC50 [1]: 0.05 to 0.39 µg/mL (≈ 0.128 to 0.999 µM); TC50 [2]: >0.50 µg/mL; Cytotoxicity [2]: no cytotoxicity; IC50 ([3]; Human immunodeficiency virus 1, read-out: IC50): 0.086 µg/mL (≈ 0.22 µM)

With CC(=O)OC12CC(C)C3(O)C(C=C(COC(=O)CCC(=O)O)CC4(O)C(=O)C(C)=CC43)C1C2(C)C (stereo not shown) [SA-101B, Prostratin Succinate] as the molecule, how does the TC50 [2] read?
The TC50 was >0.50 µg/mL.

And the Cytotoxicity [2]?
The Cytotoxicity was “no cytotoxicity”.

What about the IC50 [3] of the same molecule?
Its IC50 is “did not achieve an IC50 value”.
